Results published in PubChem BioAssay (NCI).
“And” between values parts separate entries of the source, which are not always exact repeats. Equal values may be shown once.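 Method: 48-hour compound exposure of cells in 96-well plates, five concentrations, linear interpolation of endpoints. GI50 is the concentration that inhibits growth by half. TGI: total growth inhibition.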

Experiments:
Assay in all cases: growth of human tumour cells (NCI), 48 h
UACC-62 melanoma = tested on: UACC-62 melanoma
MOLT-4 leukemia = tested on: MOLT-4 leukemia
SN12C renal = tested on: SN12C renal
IGROV1 ovarian = tested on: IGROV1 ovarian
SK-OV-3 ovarian = tested on: SK-OV-3 ovarian
U251 CNS = tested on: U251 CNS
SK-MEL-28 melanoma = tested on: SK-MEL-28 melanoma
M14 melanoma = tested on: M14 melanoma
SF-268 CNS = tested on: SF-268 CNS
HOP-62 NSCLC = tested on: HOP-62 NSCLC

SMILES | TGI (UACC-62 melanoma) | TGI (MOLT-4 leukemia) | TGI (SN12C renal) | TGI (IGROV1 ovarian) | TGI (SK-OV-3 ovarian) | TGI (U251 CNS) | TGI (SK-MEL-28 melanoma) | TGI (M14 melanoma) | TGI (SF-268 CNS) | TGI (HOP-62 NSCLC) | GI50 (UACC-62 melanoma) | GI50 (MOLT-4 leukemia) | GI50 (SN12C renal) | GI50 (IGROV1 ovarian) | GI50 (SK-OV-3 ovarian) | GI50 (U251 CNS) | GI50 (SK-MEL-28 melanoma) | GI50 (M14 melanoma) | GI50 (SF-268 CNS) | GI50 (HOP-62 NSCLC)
CN(C)c1nc2ccccc2[nH]1 | > 100 µM | > 100 µM | > 100 µM | > 100 µM | > 100 µM | > 100 µM | > 100 µM | > 100 µM | > 100 µM | > 100 µM |  |  |  |  |  |  |  |  |  | 
COC(=O)c1cc2c(s1)C(=O)c1ccccc1-2 | > 100 µM | > 100 µM | > 100 µM | > 100 µM | > 100 µM | > 100 µM | > 100 µM | > 100 µM | > 100 µM | > 100 µM |  |  |  |  |  |  |  |  |  | 
O=C(OC(CNc1cc(=O)n(Cc2ccccc2)c(=O)n1Cc1ccccc1)CN1CCCC1)c1ccccc1 (centres undefined) | > 100 µM | > 100 µM | > 100 µM | > 100 µM | > 100 µM | > 100 µM | > 100 µM | > 100 µM | > 100 µM | > 100 µM | 89.4 µM | > 100 µM | > 100 µM | > 100 µM | > 100 µM | > 100 µM | > 100 µM | > 100 µM | > 100 µM | > 100 µM
S=C(Nc1ccccc1)N(/N=C/C=C/c1ccccc1)c1nnc(-c2ccccc2)c(-c2ccccc2)n1 | > 100 µM | > 100 µM | > 100 µM | > 100 µM | > 100 µM | > 100 µM | > 100 µM | > 100 µM | > 100 µM | > 100 µM |  |  |  |  |  |  |  |  |  | 
S=C1NC2(CCCCCC2)NN1c1ccccc1 | > 100 µM | > 100 µM | > 100 µM | > 100 µM | > 100 µM | > 100 µM | > 100 µM | > 100 µM | > 100 µM | > 22.7 µM |  |  |  |  |  |  |  |  |  | 
N#CC(=C1C=CC(=NO)C=C1)c1ccccc1 | 7.41 µM | 18.4 µM | 8.41 µM | 4.53 µM | > 65 µM | 8.72 µM | 27.5 µM | 4.36 µM | 6.06 µM | 25.2 µM | 1.49 µM | 3.04 µM | 2.39 µM | 1.3 µM | 5.75 µM | 1.45 µM | 8.71 µM | 1.74 µM | 1.37 µM | 6.31 µM
CC(=O)c1cccc(NC(=O)C(=O)NNc2n[nH]c(=S)n2N)c1 | 3.72 µM | 18.3 µM | 20.3 µM | 25.8 µM | 43.1 µM | 12 µM | 18.5 µM | 6.15 µM | 27.7 µM | 29.3 µM |  |  |  |  |  |  |  |  |  | 
O=C(CCn1[nH]c(=O)c(Cl)c(Cl)c1=O)NO | > 100 µM | > 100 µM | > 100 µM | > 100 µM | > 100 µM | > 100 µM | > 100 µM | > 100 µM | > 100 µM | > 100 µM |  |  |  |  |  |  |  |  |  | 
CC1(C)COC(c2cccnc2/C=N/O)=N1 | > 100 µM | > 100 µM | > 100 µM | > 100 µM | > 100 µM | > 100 µM | > 100 µM | > 100 µM | > 100 µM | > 100 µM |  |  |  |  |  |  |  |  |  | 
O=C(Cc1ccc(/C=C/C(=O)c2ncc[nH]2)cc1)Nc1cc(F)c(F)c(F)c1 | 8.91 µM | 16.1 µM | 11.1 µM | 9.68 µM | > 25 µM | 3.8 µM | 8.09 µM | 8.36 µM | 20.1 µM | 8.12 µM | 3.71 µM | 4.81 µM | 4.27 µM | 3.31 µM | 7.01 µM | 0.992 µM | 4.15 µM | 4.06 µM | 5.26 µM | 3.71 µM
Cc1cc(I)cc(CN(C)CCCN2CCCCCCC2)c1O | 18 µM | 19.9 µM | 41.1 µM | 32 µM | 35.9 µM | 29.2 µM | 31.2 µM | 33.2 µM | 31.3 µM | 32.2 µM | 6 µM | 3.7 µM | 18 µM | 15.4 µM | 18.7 µM | 15 µM | 15.3 µM | 15.5 µM | 14.9 µM | 16.4 µM
[Cl][Hg][c]1cc(Br)cc(Br)c1 | 3.42 µM | 5.41 µM | 3.56 µM | 3.41 µM | 13 µM | 1.67 µM | 2.97 µM | 6.32 µM | 4.28 µM | 3.52 µM | 1.62 µM | 1.77 µM | 1.61 µM | 1.47 µM | 4.07 µM | 0.441 µM | 1.57 µM | 2.12 µM | 1.76 µM | 1.83 µM
O/N=C/C1C(OCc2ccccc2)C(OCc2ccccc2)C(OCc2ccccc2)CN1Cc1ccccc1 (centres undefined) | 30.5 µM and > 100 µM | 31.4 µM | 62 µM and > 100 µM | 65.9 µM and > 100 µM | 51.3 µM and > 100 µM | 37.5 µM and > 100 µM | 44.1 µM and > 100 µM | 40.3 µM and > 100 µM | > 100 µM | 53.1 µM and > 100 µM |  |  | 20.6 µM and 4.32 µM |  | 22.7 µM and > 100 µM |  |  | 11.7 µM and 5.68 µM |  | 17.8 µM and 45.4 µM
N#CC(N)(C(=O)CCC(=O)Nc1cccc(Cl)c1)c1ccc(Cl)cc1 (centres undefined) | > 100 µM | > 100 µM | > 100 µM | > 100 µM | > 100 µM | > 100 µM | > 100 µM | > 100 µM | > 100 µM | > 100 µM |  |  |  |  |  |  |  |  |  | 
CC(C)CCN1c2nc(Nc3cc(F)c(O)c(F)c3)ncc2N(C)C(=O)C1C (centres undefined) | 23.8 µM | 19.9 µM | > 91.6 µM | > 61.2 µM | > 100 µM | 58.6 µM | > 95.8 µM | 26.1 µM | 56.8 µM | > 100 µM | 4.75 µM | 4.1 µM | 4.9 µM | 8.83 µM | 2.89 µM | 5.55 µM | 10.9 µM | 4.59 µM | 5.81 µM | 6.66 µM
